Experimental data reported in ChEMBL document CHEMBL4622837, “Finding the mechanism of esterase D activation by a small molecule” (Bioorg Med Chem Lett, 2020).
The source made the active and inactive calls. The rule behind the calls is not given here.

Tests used:
[1] = tested on: HEK-293T; assay: Inhibition of IgG binding to ESD K180A mutant (unknown origin) expressed in HEK293T cells; assay type: cell-based; settings: Homo sapiens
[2] = molecular target: T1, S-formylglutathione hydrolase (Homo sapiens) (UniProt P10768); assay: Inhibition of IgG binding to human ESD expressed in HEK293T cells; assay type: cell-based; settings: HEK-293T
T1 sequence (whole entry): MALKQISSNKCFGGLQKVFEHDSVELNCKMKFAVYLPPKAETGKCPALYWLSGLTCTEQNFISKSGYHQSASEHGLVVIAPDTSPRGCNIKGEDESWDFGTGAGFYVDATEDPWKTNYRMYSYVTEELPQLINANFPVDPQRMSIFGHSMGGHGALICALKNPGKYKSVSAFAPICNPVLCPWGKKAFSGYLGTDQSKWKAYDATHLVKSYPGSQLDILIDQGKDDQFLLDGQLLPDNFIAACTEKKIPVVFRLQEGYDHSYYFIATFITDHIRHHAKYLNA

[3] = tested on: HEK-293T; assay: Activation of ESD K213A mutant (unknown origin) expressed in HEK293T cells transfected with p-EGFP assessed as increase in protein mono ubiquitination at 0.1 to 1 uM measured up to 36 hrs by Western blot analysis; assay type: cell-based; settings: Homo sapiens
[4] = molecular target: T1, S-formylglutathione hydrolase (Homo sapiens); assay: Activation of ESD in human L02 cells at 0.1 to 1 uM after 24 hrs; assay type: cell-based
[5] = tested on: HeLa; assay: Activation of ESD K180A mutant (unknown origin) expressed in human HeLa cells transfected with p-EGFP assessed as compound co-localization with protein by fluorescence microscopic analysis; assay type: cell-based
[6] = molecular target: T2, S-formylglutathione hydrolase (Homo sapiens, UniProt P10768); assay: Binding affinity to human ESD expressed in HEK293T cells assessed as dissociation rate constant; assay type: cell-based; settings: hek-293t
T2 sequence (P10768 whole entry): T1 sequence (whole entry)

[7] = molecular target: T1, S-formylglutathione hydrolase (Homo sapiens); assay: Activation of human ESD expressed in HEK293T cells transfected with pEGFP-N1 assessed as increase in protein mono ubiquitination at 0.1 to 5 uM after 12 to 24 hrs by immunoblotting analysis; assay type: cell-based; settings: HEK-293T
[8] = molecular target: T1, S-formylglutathione hydrolase (Homo sapiens); assay: Inhibition of IgG binding to ESD in human L02 cells by immuno precipitation assay; assay type: cell-based
[9] = molecular target: T1, S-formylglutathione hydrolase (Homo sapiens); assay: Activation of human ESD expressed in HEK293T cells transfected with pEGFP-N1 assessed as protein redistribution in cytoplasm by fluorescence microscopic analysis; assay type: cell-based; settings: HEK-293T
[10] = molecular target: T2, S-formylglutathione hydrolase; assay: Binding affinity to human ESD expressed in HEK293T cells assessed as dissociation constant; assay type: cell-based, HEK-293T
[11] = molecular target: T1, S-formylglutathione hydrolase (Homo sapiens); assay: Activation of human ESD expressed in HEK293T cells transfected with pEGFP-N1 assessed as induction of protein mono ubiquitination at 5 uM after 3 hrs by immunoblotting analysis; assay type: cell-based; settings: HEK-293T
[12] = molecular target: T1, S-formylglutathione hydrolase (Homo sapiens); assay: Activation of human ESD expressed in HEK293T cells transfected with pEGFP-N1 assessed as compound co-localization with protein by fluorescence microscopic analysis; assay type: cell-based; settings: HEK-293T
[13] = molecular target: T1, S-formylglutathione hydrolase (Homo sapiens); assay: Binding affinity to human ESD expressed in HEK293T cells assessed as association rate constant; assay type: cell-based; settings: HEK-293T
[14] = tested on: HEK-293T; assay: Inhibition of IgG binding to ESD K213A mutant (unknown origin) expressed in HEK293T cells; assay type: cell-based; settings: Homo sapiens
[15] = molecular target: T1, S-formylglutathione hydrolase (Homo sapiens); assay: Activation of human ESD expressed in HEK293T cells transfected with pEGFP-N1 at 0.1 uM after 24 hrs; assay type: cell-based; settings: HEK-293T
[16] = tested on: HeLa; assay: Activation of ESD K180A mutant (unknown origin) expressed in human HeLa cells transfected with p-EGFP at 0.1 uM; assay type: cell-based
[17] = tested on: HEK-293T; assay: Activation of ESD K180A mutant (unknown origin) expressed in HEK293T cells transfected with p-EGFP assessed as increase in protein mono ubiquitination at 0.1 to 1 uM measured up to 36 hrs by Western blot analysis; assay type: cell-based; settings: Homo sapiens
[18] = tested on: HeLa; assay: Activation of ESD K213A mutant (unknown origin) expressed in human HeLa cells transfected with p-EGFP assessed as protein co-localization by fluorescence microscopic analysis; assay type: cell-based
[19] = tested on: HEK-293T; assay: Activation of ESD K213A mutant (unknown origin) expressed in HEK293T cells transfected with p-EGFP assessed as induction of protein mono ubiquitination at 0.1 to 1 uM measured up to 24 hrs by immunoblotting analysis; assay type: cell-based; settings: Homo sapiens
[20] = tested on: HEK-293T; assay: Activation of ESD K180A mutant (unknown origin) expressed in HEK293T cells transfected with p-EGFP assessed as protein mono ubiquitination at 0.1 to 1 uM measured up to 24 hrs by Western blot analysis; assay type: cell-based; settings: Homo sapiens
[21] = molecular target: T1, S-formylglutathione hydrolase (Homo sapiens); assay: Activation of human ESD expressed in HEK293T cells transfected with pEGFP-N1 assessed as induction of protein mono ubiquitination at 1 to 5 uM after 6 hrs by immunoblotting analysis; assay type: cell-based; settings: HEK-293T
[22] = molecular target: T1, S-formylglutathione hydrolase (Homo sapiens); assay: Activation of wild type human ESD expressed in HEK293T cells assessed as increase in protein mono ubiquitination at 0.1 to 1 uM incubated for 12 hrs by Western blot analysis; assay type: cell-based; settings: HEK-293T
[23] = tested on: HeLa; assay: Activation of ESD K213A mutant (unknown origin) expressed in human HeLa cells transfected with p-EGFP at 0.1 uM; assay type: cell-based

## Oc1ccc(Cl)cc1C1=NN(c2ccccn2)C(c2ccccc2)C1 (stereo not drawn)
[1]
  inhibition: inactive
[2]
  inhibition: Dose-dependent effect
[3]
  Activity: inactive
[4]
  Activity: Active
[5]
  Activity: inactive
[6]
  Kd: 4.4 ×10⁻⁴ /s
[7]
  Activity: Active
[8]
  inhibition: Dose-dependent effect
[9]
  Activity: Active
[10]
  Kd: 0.8 nM
[11]
  Activity: Active
[12]
  Activity: Active
[13]
  Ka: 5.2 ×10⁵ /M/s
[14]
  inhibition: inactive
[15]
  Activity: Active
[16]
  Activity: inactive
[17]
  Activity: inactive
[18]
  Activity: inactive
[19]
  Activity: inactive
[20]
  Activity: inactive
[21]
  Activity: Active
[22]
  Activity: Active
[23]
  Activity: inactive
